Laboratory results published in ChEMBL document CHEMBL1138052, “Discovery and optimization of anthranilic acid sulfonamides as inhibitors of methionine aminopeptidase-2: a structural basis for the reduction of albumin binding” (J Med Chem, 2006).

Assay: Protein binding in rat plasma
Assay type: ADME, organism-based
Settings: read-out: PPB (converted)

| fraction unbound | SMILES |
| --- | --- |
| 0.003 | Cc1ccc(NS(=O)(=O)c2ccccc2)c(C(=O)O)c1 |
| 0.002 | O=C(O)c1c(NS(=O)(=O)c2ccccc2)ccc2c1CCCC2 |
